According to patent publication US10174053B2, “2 substituted cephem compounds” (Glaxo Group Limited, priority 2012, dated 2019):
Values after ≈ are worked out from the molar mass of the structure shown.

Columns and labels:
Experiment in all cases: In vitro antimicrobial activity, MIC by broth microdilution (CLSI)
Type in all cases: cell-based
A. baumannii JMI2346 = settings: Acinetobacter baumannii, JMI2346; OXA-51, TEM, ESBL and OXA-type carbapenemase producing strain; 5×10^5 cfu/mL; cation-adjusted Iso-Sensitest broth containing human Apo-transferrin; read-out: Minimum Inhibitory Concentration (MIC) A. baumannii JMI:2346
Outline: (§1)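 MIC (μg/mL) by CLSI broth microdilution, inoculum 5×10^5 cfu/mL, in cation-adjusted Iso-Sensitest broth containing human apo-transferrin.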

A. baumannii JMI7 = settings: Acinetobacter baumannii, JMI7; PER-1, OXA-23, 51, ESBL and OXA-type carbapenemase producing strain; 5×10^5 cfu/mL; cation-adjusted Iso-Sensitest broth containing human Apo-transferrin; read-out: Minimum Inhibitory Concentration (MIC) A. baumannii JMI:7
Outline: as §1

E. Coli JMI1890 = settings: Escherichia coli; PER-1, TEM-1, ESBL producing strain; 5×10^5 cfu/mL; cation-adjusted Iso-Sensitest broth containing human Apo-transferrin; read-out: Minimum Inhibitory Concentration (MIC) E. Coli JMI:1890
Outline: as §1

K. pneumoniae SR01358 = settings: Klebsiella pneumoniae, SR01358; KPC-2, ESBL and KPC-type carbapenemase producing strain; 5×10^5 cfu/mL; cation-adjusted Iso-Sensitest broth containing human Apo-transferrin; read-out: Minimum Inhibitory Concentration (MIC) K. pneumoniae SR01358
Outline: as §1

Row | Structure (SMILES) | MIC (A. baumannii JMI2346) [µg/mL] | MIC (A. baumannii JMI7) [µg/mL] | MIC (E. Coli JMI1890) [µg/mL] | MIC (K. pneumoniae SR01358) [µg/mL]
1 | C[C@@H]1S[C@@H]2[C@H](NC(=O)/C(=N\OC(C)(C)C(=O)[O-])c3csc(N)n3)C(=O)N2C(C(=O)[O-])=C1C[N+]12CCC(CNC(=O)c3c[nH]c4cc(O)c(O)c(Cl)c4c3=O)(CC1)CC2.[Na+] [Compound I-169, (4S,6R,7R)-7-((Z)-2-(2-aminothiazol-4-yl)-2-(((2-carboxypropan-2-yl)oxy)imino)acetamido)-3-((4-((5-chloro-6,7-dihydroxy-4-oxo-1,4-dihydroquinoline-3-carboxamido)methyl)quinuclidin-1-ium-1-yl)methyl)-4-methyl-8-oxo-5-thia-1-azabicyclo[4.2.0]oct-2-ene-2-carboxylate, Sodium salt] | 0.5 | 0.25 | 0.063 | ≤ 0.031
2 | CO/N=C(\C(=O)NCC12CC[N+](CC3=C(C(=O)O)N4C(=O)[C@@H](NC(=O)/C(=N\OC(C)(C)C(=O)[O-])c5csc(N)n5)[C@H]4S[C@H]3C)(CC1)CC2)c1ccc(O)c(O)c1Cl [Compound I-96] | 8 (≈ 9.42 µM) | 1 (≈ 1.18 µM) | 0.125 (≈ 0.147 µM) | ≤ 0.031
3 | C[C@@H]1S[C@@H]2[C@H](NC(=O)/C(=N\OC(C)(C)C(=O)[O-])c3csc(N)n3)C(=O)N2C(C(=O)[O-])=C1C[N+]12CCC(CNC(=O)C(=O)c3ccc(O)c(O)c3Cl)(CC1)CC2.[Na+] [Compound I-3] | 2 | 0.5 | 0.5 | ≤ 0.031
4 | C[C@@H]1S[C@@H]2[C@H](NC(=O)/C(=N\OC(C)(C)C(=O)[O-])c3csc(N)n3)C(=O)N2C(C(=O)[O-])=C1C[N+]12CCC(CNC(=O)C(=O)c3cc(O)c(O)c(Cl)c3)(CC1)CC2.[Na+] [Compound I-14] | 8 | 2 | 1 | ≤ 0.031
5 | C[C@@H]1S[C@@H]2[C@H](NC(=O)/C(=N\OC(C)(C)C(=O)O)c3csc(N)n3)C(=O)N2C(C(=O)[O-])=C1C[N+]12CCC(Cn3ncc4cc(O)c(O)c(Cl)c4c3=O)(CC1)CC2 [Compound I-125] | 8 (≈ 9.79 µM) | 0.5 (≈ 0.612 µM) | 0.125 (≈ 0.153 µM) | ≤ 0.031

More lines, now with the values ahead:

Row | MIC (A. baumannii JMI2346) [µg/mL] | MIC (A. baumannii JMI7) [µg/mL] | MIC (E. Coli JMI1890) [µg/mL] | MIC (K. pneumoniae SR01358) [µg/mL] | Structure (SMILES)
6 | 4 (≈ 5.18 µM) | 0.5 (≈ 0.647 µM) | 0.5 (≈ 0.647 µM) | ≤ 0.031 | C[C@@H]1S[C@@H]2[C@H](NC(=O)/C(=N\OC(C)(C)C(=O)[O-])c3csc(N)n3)C(=O)N2C(C(=O)O)=C1C[N+]1(CCNN2C(=O)c3cc(O)c(O)cc3C2=O)CCCC1 [Compound I-26]
7 | 4 | 0.25 | 0.25 | ≤ 0.031 | C[C@@H]1S[C@@H]2[C@H](NC(=O)/C(=N\OC(C)(C)C(=O)[O-])c3csc(N)n3)C(=O)N2C(C(=O)[O-])=C1C[N+]1(CCNC(=O)C(=O)c2ccc(O)c(O)c2Cl)CCCC1.[Na+] [Compound I-74]
8 | 4 (≈ 5.17 µM) | 0.5 (≈ 0.646 µM) | 0.5 (≈ 0.646 µM) | ≤ 0.031 | C[C@@H]1S[C@@H]2[C@H](NC(=O)/C(=N\OC(C)(C)C(=O)[O-])c3csc(N)n3)C(=O)N2C(C(=O)O)=C1C[N+]1(CCON2C(=O)c3cc(O)c(O)cc3C2=O)CCCC1 [Compound I-27]
9 | 4 (≈ 5.22 µM) | 2 (≈ 2.61 µM) | 0.25 (≈ 0.326 µM) | 0.25 (≈ 0.326 µM) | C[C@H]1S[C@@H]2[C@H](NC(=O)/C(=N\OC(C)(C)C(=O)[O-])c3csc(N)n3)C(=O)N2C(C(=O)O)=C1C[N+]1(CCNC(=O)c2ccc(O)c(O)c2Cl)CCCC1 [Compound I-53]
10 | 1 | 0.25 | 4 | ≤ 0.031 | C[C@@H]1S[C@@H]2[C@H](NC(=O)/C(=N\OC(C)(C)C(=O)[O-])c3csc(N)n3)C(=O)N2C(C(=O)[O-])=C1C[N+]12CCC(CC1)N(C(=O)c1c[nH]c3cc(O)c(O)cc3c1=O)CC2.[Na+] [Compound I-174, (4S,6R,7R)-7-((Z)-2-(2-aminothiazol-4-yl)-2-(((2-carboxypropan-2-yl)oxy)imino)acetamido)-3-((4-(6,7-dihydroxy-4-oxo-1,4-dihydroquinoline-3-carbonyl)-1,4-diazabicyclo[3.2.2]nonan-1-ium-1-yl)methyl)-4-methyl-8-oxo-5-thia-1-azabicyclo[4.2.0]oct-2-ene-2-carboxylate, Sodium salt]
11 | 0.5 (≈ 0.65 µM) | 0.25 (≈ 0.325 µM) | 0.063 (≈ 0.0819 µM) | ≤ 0.031 | C[C@@H]1S[C@@H]2[C@H](NC(=O)/C(=N\OC(C)(C)C(=O)O)c3csc(N)n3)C(=O)N2C(C(=O)[O-])=C1C[N+]12CCC(Cn3ncc4cc(O)c(O)cc4c3=O)(CC1)C2 [Compound I-126]
12 | 16 | 1 | 1 | ≤ 0.031 | C[C@@H]1S[C@@H]2[C@H](NC(=O)/C(=N\OC(C)(C)C(=O)[O-])c3csc(N)n3)C(=O)N2C(C(=O)[O-])=C1C[N+]1(CCN2C(=O)c3cc(O)c(O)cc3C2=O)CCCC1.[Na+] [Compound I-1]
